Measured values published in patent US20250042896A1, “POLYCYCLIC COMPOUND AS CBL-B INHIBITOR” (HAINAN SIMCERE ZAIMING PHARMACEUTICAL CO., LTD., priority 2021, published 2025).

Legend:
[1] = system: Jurkat T cells; test: Jurkat T activation assay (IL-2 release, ELISA); type: cell-based; conditions: IL-2 release of Jurkat T cells, Anti-Human CD3/CD28 stimulation, 48 hours, IL-2 ELISA
Experimental: Experiment purpose: Testing of effect of compounds on IL-2 release and activation of Jurkat T cells
Experimental method: 96-well cell plates (Corning) were coated with 2 μg/mL Anti-Human CD3 Clone OKT3 (BD) at 37° C. for 4 hours. 3-fold serial dilutions of compounds (final concentration 10 μM-4.6 nM, starting concentration 10 μM, 3-fold dilution, 8 points, 8th point being 4.6 nM) and 220 μL of 1.11×10^6/mL Jurkat T cells (ATCC) were incubated for 1 hour, 5 μL of 45 μg/mL Anti-Human CD28 Clone CD28.2 (BD) was added, mixed evenly, 100 μL was transferred to the aforementioned CD3-coated cell plate, cultured in a cell incubator at 37° C. for 48 hours, and the supernatant was collected and the IL-2 release was detected using an IL-2 ELISA kit (BD). EC50 was analyzed using Prism.

[2] = biological target: Cbl-b protein and UbcH5B-Ub (Homo sapiens (Human), UniProt Q13191); test: Cbl-b activity assay (HTRF, interaction between Cbl-b protein and UbcH5B-Ub); type: biochemical; conditions: inhibition of interaction between Biotin-Cbl-b protein and Eu-Ubquitin-UbcH5B, HTRF signal 665 nm/615 nm
Experimental: Experiment purpose: Testing of inhibitory activity of compounds on the interaction between Cbl-b protein and UbcH5B-Ub
Experimental method: Eu-Ubquitin-UbcH5B was prepared by incubating Eu-Ubquitin (Cisbio) with UbcH5B (ENZO), E1 (ENZO) at 37° C. for 4 hours. Eu-Ubquitin-UbcH5B was aliquoted and stored at −80° C. Cbl-b activity assay was performed in 384-well plates (Perkin Elmer). 100 nL of 3-fold serial dilutions of compounds (final concentration 10 μM-0.5 nM, starting concentration 10 μM, 3-fold dilution, 10 points, 10th point being 0.5 nM) and 5 μL of 50 nM Biotin-Cbl-b protein (Sigma) were incubated for 1 hour at room temperature, and the reaction buffer was 50 mM HEPES pH 7.0 (Gibco), 100 mM NaCl (Sigma), 0.01% Triton X-100 (Sigma), 0.01% BSA (Sigma) and 1 mM DTT (Invitrogen). 5 μL of Src mixed solution (40 nM Src (R&D), 2 mM ATP (Sigma), 10 mM MgCl2 (Sigma)) was added to the reaction plate and incubated at room temperature for 3 hours. 10 μL of detection solution (12.5 nM Strepdividin-XL665 (Cisbio), 500 nM Eu-Ubquitin-UbcH5B, […] (Invitrogen), 0.004% BSA (Sigma)) was added to the reaction plate, incubated overnight at room temperature, and the HTRF signal (665 nm/615 nm) was read on Envision (Perkin Elmer). IC50 was calculated using IDBS XLfit.

Cbl-b protein and UbcH5B-Ub, sequence (Q13191 whole entry, species assumed): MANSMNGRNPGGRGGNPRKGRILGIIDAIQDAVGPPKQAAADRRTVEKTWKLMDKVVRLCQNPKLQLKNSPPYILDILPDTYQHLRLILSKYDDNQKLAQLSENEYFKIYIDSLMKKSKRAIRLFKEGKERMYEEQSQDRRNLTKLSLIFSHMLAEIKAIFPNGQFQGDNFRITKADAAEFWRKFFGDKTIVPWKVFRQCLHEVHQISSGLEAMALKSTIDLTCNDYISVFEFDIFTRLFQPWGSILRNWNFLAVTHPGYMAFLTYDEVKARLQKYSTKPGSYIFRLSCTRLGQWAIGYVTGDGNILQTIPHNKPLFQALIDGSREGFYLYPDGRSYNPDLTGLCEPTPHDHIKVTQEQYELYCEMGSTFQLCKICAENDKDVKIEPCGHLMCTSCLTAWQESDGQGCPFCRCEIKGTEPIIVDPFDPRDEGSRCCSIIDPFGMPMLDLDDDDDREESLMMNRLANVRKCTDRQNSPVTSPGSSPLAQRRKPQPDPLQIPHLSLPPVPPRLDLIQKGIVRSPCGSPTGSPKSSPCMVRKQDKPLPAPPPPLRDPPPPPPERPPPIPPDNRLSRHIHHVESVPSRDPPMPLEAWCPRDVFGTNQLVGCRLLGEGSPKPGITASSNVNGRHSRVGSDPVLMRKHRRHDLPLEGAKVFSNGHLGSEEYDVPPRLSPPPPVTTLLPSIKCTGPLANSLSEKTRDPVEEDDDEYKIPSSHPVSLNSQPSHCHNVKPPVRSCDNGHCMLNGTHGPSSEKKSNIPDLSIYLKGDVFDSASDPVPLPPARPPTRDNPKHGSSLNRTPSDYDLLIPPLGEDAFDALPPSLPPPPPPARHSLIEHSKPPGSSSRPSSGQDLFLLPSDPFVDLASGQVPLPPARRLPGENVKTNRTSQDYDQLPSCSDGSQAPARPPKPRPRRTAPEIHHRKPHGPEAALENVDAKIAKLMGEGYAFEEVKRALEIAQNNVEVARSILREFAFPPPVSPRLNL

| EC50 [1] | IC50 [2] | Molecule |
| --- | --- | --- |
| 555 nM | 12.3 nM | Cc1c(F)c(CNC2(C)CCC2)cc2c(=O)c(-c3cccc([C@]4(c5nncn5C)C[C@@H](C)C4)c3)coc12 [Compound 122, 7-fluoro-8-methyl-3-(3-(cis-3-methyl-1-(4-methyl-4H-1,2,4-triazol-3-yl)cyclobutyl)phenyl)-6-(((1-methylcyclobutyl)amino)methyl)-4H-chromen-4-one] |
| 53.6 nM | 5.4 nM | Cc1cc(C(C)NC2(C)CCC2)cc2c(=O)c(-c3cccc([C@]4(c5nncn5C)C[C@@H](C)C4)c3)coc12 (stereo partly drawn) [Compound 123, 8-methyl-3-(3-(cis-3-methyl-1-(4-methyl-4H-1,2,4-triazol-3-yl)cyclobutyl)phenyl)-6-(1-((1-methylcyclobutyl)amino)ethyl)-4H-chromen-4-one] |
| 383 nM | 19.7 nM | Cc1c(F)c(CN2CCC[C@H](C)C2)cc2c(=O)c(-c3cccc(C(c4nncn4C)C4CC4)c3)coc12 (stereo partly drawn) [Compound 124, 3-(3-(cyclopropyl(4-methyl-4H-1,2,4-triazol-3-yl)methyl)phenyl)-7-fluoro-8-methyl-6-(((S)-3-methylpiperidin-1-yl)methyl)-4H-chromen-4-one] |
| 80.5 nM | 11.1 nM | CC(NC1(C)CCC1)c1cc(C(F)(F)F)c2ncc(-c3cccc([C@]4(c5nncn5C)C[C@@H](C)C4)c3)c(=O)n2c1 (stereo partly drawn) [Compound 126, 3-(3-(cis-3-methyl-1-(4-methyl-4H-1,2,4-triazol-3-yl)cyclobutyl)phenyl)-7-(1-((1-methylcyclobutyl)amino)ethyl)-9-(trifluoromethyl)-4H-pyrido[1,2-a]pyrimidin-4-one] |
| 279 nM | 28.6 nM | Cc1cc(CN2CCC[C@H](C)C2)cc2c(=O)c(-c3cccc(C(F)(c4nncn4C)C(F)(F)F)c3)coc12 (stereo partly drawn) [Compound 128, 8-methyl-6-(((S)-3-methylpiperidin-1-yl)methyl)-3-(3-(1,2,2,2-tetrafluoro-1-(4-methyl-4H-1,2,4-triazol-3-yl)ethyl)phenyl)-4H-chromen-4-one] |

More lines, now with the values behind:

| Molecule | EC50 [1] | IC50 [2] |
| --- | --- | --- |
| Cc1cc(CN2CCC[C@H](C)C2)cc2c(=O)c(-c3cccc(C4(c5nncn5C)CC(F)C4)c3)coc12 (stereo partly drawn) [Compound 69, 3-(3-((1R,3S)-3-fluoro-1-(4-methyl-4H-1,2,4-triazol-3-yl)cyclobutyl)phenyl)-8-methyl-6-(((S)-3-methylpiperidin-1-yl)methyl)-4H-chromen-4-one] | 552 nM | 15 nM |
| Cc1cc(CN2CCC[C@H](C)C2)cc2c(=O)c(-c3cccc(C(F)(c4nncn4C)C4CC4)c3)coc12 (stereo partly shown) [Compound 120] | 688 nM | 17.5 nM |
| (1S,3R)-3-(4-methyl-4H-1,2,4-triazol-3-yl)-3-(3-(8-methyl-6-(((S)-3-methylpiperidin-1-yl)methyl)-4-oxo-4H-chromen-3-yl)phenyl)cyclobutylacetonitrile [Compound 68] | 456 nM | 17.8 nM |
